Data taken from ChEMBL document CHEMBL3132856, “Novel pyrazolo[1,5-a]pyridines as PI3K inhibitors: variation of the central linker group” (Medchemcomm, 2014).

Columns and labels:
[1] = biological target: Phosphatidylinositol 4,5-bisphosphate 3-kinase catalytic subunit beta isoform (Homo sapiens, UniProt P42338); experiment: Inhibition of PI3Kbeta (unknown origin)
[2] = biological target: T1, Phosphatidylinositol 4,5-bisphosphate 3-kinase catalytic subunit delta isoform (Homo sapiens, UniProt O00329); experiment: Inhibition of PI3Kdelta (unknown origin)
T1 sequence (O00329 whole entry): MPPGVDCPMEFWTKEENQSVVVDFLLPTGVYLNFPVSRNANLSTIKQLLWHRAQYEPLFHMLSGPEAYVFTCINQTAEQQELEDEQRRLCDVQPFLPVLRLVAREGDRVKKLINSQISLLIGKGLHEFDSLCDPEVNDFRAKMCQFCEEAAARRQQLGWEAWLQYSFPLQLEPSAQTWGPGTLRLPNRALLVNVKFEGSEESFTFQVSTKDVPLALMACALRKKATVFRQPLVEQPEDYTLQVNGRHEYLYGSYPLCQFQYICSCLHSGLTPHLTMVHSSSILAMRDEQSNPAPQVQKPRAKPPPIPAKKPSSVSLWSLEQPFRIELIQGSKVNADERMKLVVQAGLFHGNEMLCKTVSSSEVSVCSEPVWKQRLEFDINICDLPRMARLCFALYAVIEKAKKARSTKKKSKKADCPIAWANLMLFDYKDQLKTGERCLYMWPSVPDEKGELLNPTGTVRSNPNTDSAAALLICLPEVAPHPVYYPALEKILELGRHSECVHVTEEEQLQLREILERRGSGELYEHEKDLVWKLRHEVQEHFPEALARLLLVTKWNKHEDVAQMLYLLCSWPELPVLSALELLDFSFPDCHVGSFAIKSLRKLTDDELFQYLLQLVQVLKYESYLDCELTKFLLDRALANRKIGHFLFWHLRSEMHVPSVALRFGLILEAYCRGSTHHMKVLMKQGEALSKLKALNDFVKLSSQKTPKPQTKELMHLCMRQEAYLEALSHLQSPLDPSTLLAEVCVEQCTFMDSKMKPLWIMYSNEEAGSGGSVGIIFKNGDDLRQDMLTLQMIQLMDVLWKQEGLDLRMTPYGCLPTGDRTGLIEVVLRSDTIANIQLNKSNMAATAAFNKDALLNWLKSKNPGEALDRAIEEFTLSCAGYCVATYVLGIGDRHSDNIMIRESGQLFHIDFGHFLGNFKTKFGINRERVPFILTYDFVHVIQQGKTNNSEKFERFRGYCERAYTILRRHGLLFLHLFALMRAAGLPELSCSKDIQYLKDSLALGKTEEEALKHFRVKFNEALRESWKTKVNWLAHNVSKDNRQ

[3] = biological target: Phosphatidylinositol 4,5-bisphosphate 3-kinase catalytic subunit alpha isoform (Homo sapiens, UniProt P42336); experiment: Inhibition of PI3Kalpha (unknown origin)
Homo sapiens [4] = species: Homo sapiens; experiment: Selectivity ratio of IC50 for PI3Kbeta (unknown origin) to IC50 for PI3Kalpha (unknown origin)
Homo sapiens [5] = species: Homo sapiens; experiment: Selectivity ratio of IC50 for PI3Kalpha (unknown origin) to IC50 for PI3Kdelta (unknown origin)
Homo sapiens [6] = species: Homo sapiens; experiment: Selectivity ratio of IC50 for PI3Kdelta (unknown origin) to IC50 for PI3Kalpha (unknown origin)

Chain of Phosphatidylinositol 4,5-bisphosphate 3-kinase catalytic subunit beta isoform (P42338 whole entry, canonical isoform): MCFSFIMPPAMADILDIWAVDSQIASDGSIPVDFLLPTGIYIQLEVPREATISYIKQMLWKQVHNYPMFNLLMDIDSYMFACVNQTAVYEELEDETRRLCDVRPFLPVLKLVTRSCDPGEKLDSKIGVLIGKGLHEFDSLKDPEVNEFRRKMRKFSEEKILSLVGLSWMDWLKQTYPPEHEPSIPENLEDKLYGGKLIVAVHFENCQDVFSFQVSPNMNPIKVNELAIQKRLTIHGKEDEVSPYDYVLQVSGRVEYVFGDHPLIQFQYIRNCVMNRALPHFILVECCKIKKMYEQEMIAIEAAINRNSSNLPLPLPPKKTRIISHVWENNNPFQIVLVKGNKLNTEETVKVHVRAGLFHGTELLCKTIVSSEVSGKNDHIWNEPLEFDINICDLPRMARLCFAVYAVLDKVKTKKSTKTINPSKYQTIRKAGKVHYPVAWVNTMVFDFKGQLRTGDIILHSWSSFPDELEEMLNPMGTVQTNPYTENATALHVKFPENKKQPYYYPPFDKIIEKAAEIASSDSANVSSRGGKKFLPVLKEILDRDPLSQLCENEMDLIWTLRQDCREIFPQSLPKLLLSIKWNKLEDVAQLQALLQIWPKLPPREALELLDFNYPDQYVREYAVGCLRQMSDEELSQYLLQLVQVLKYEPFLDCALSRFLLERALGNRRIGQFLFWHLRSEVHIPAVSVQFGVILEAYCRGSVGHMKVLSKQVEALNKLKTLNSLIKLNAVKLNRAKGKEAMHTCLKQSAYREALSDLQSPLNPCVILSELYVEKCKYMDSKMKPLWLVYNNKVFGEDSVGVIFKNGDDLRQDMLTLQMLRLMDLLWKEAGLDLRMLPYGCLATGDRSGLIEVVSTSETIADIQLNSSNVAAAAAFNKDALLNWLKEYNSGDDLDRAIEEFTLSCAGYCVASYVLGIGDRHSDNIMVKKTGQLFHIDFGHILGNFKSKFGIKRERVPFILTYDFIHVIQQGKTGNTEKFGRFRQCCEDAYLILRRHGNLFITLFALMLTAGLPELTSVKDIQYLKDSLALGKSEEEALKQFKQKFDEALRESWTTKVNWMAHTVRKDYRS
Chain of Phosphatidylinositol 4,5-bisphosphate 3-kinase catalytic subunit alpha isoform (P42336 whole entry, canonical isoform): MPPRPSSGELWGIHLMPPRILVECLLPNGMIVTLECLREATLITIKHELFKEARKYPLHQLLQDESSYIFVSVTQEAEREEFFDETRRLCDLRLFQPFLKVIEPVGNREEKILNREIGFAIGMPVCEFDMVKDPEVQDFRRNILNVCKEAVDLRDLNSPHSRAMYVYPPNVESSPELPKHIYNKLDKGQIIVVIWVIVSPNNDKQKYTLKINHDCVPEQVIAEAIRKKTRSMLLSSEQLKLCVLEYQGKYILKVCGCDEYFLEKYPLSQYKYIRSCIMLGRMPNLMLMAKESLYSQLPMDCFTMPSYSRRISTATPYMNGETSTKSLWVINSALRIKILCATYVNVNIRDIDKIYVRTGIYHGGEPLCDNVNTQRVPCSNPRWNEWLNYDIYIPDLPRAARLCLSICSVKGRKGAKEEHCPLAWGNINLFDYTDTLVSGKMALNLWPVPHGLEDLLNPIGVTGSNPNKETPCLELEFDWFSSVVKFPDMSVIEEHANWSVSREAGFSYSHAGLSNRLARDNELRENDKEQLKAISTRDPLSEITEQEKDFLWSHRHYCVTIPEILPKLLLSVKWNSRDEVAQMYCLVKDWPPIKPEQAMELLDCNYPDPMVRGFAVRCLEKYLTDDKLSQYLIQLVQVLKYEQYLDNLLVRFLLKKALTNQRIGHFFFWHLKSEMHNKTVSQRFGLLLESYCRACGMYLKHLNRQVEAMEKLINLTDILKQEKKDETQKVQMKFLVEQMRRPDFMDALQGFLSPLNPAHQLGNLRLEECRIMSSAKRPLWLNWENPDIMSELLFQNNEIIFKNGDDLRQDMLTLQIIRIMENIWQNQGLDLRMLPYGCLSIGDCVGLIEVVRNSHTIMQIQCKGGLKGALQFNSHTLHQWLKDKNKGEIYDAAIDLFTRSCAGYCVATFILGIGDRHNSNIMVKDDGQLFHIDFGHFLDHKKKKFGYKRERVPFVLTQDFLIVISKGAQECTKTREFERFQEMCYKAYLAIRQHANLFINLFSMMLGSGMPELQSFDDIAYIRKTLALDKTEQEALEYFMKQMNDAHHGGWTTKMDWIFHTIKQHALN

| IC50 [1] | IC50 [2] | IC50 [3] | Ratio IC50 (Homo sapiens [4]) | Ratio IC50 (Homo sapiens [5]) | Ratio IC50 (Homo sapiens [6]) | SMILES |
| --- | --- | --- | --- | --- | --- | --- |
| > 1000 nM | > 1000 nM | 1260 nM | – | – | – | Cc1ccc([N+](=O)[O-])cc1S(=O)(=O)Nc1nc(-c2cnn3ccc(Br)cc23)cs1 |
| > 1000 nM | > 1000 nM | > 1000 nM | – | – | – | O=[N+]([O-])c1cccc(Sc2nc(-c3cnn4ccc(Br)cc34)cs2)c1 |
| > 1000 nM | > 1000 nM | > 1000 nM | – | – | – | Cc1ccc([N+](=O)[O-])cc1-c1nc(-c2cnn3ccc(Br)cc23)cs1 |
| > 1000 nM | 150 nM | 170 nM | – | – | – | N#Cc1cc(S(=O)(=O)c2nc(-c3cnn4ccc(Br)cc34)cs2)ccc1F |
| > 1000 nM | > 1000 nM | > 1000 nM | – | – | – | Cc1ccc([N+](=O)[O-])cc1CS(=O)(=O)c1nc(-c2cnn3ccc(Br)cc23)cs1 |
| > 1000 nM | 1550 nM | > 1000 nM | – | – | – | Cc1ccc([N+](=O)[O-])cc1S(=O)(=O)N(C)c1nc(-c2cnn3ccc(Br)cc23)cs1 |
| – | – | 630 nM | < 10 | – | – | O=[N+]([O-])c1cccc(S(=O)(=O)c2nc(-c3cnn4ccc(Br)cc34)cs2)c1 |
| > 1000 nM | > 1000 nM | 3000 nM | – | – | – | Cc1ccc([N+](=O)[O-])cc1S(=O)(=O)N1CCC(c2cnn3ccc(Br)cc23)C1 (centres undefined) |
| > 1000 nM | > 1000 nM | 590 nM | – | – | – | Cc1ccc([N+](=O)[O-])cc1S(=O)(=O)N1CCCC(c2cnn3ccc(Br)cc23)C1 (centres undefined) |
| > 1000 nM | > 1000 nM | > 1000 nM | – | – | – | Cc1ccc([N+](=O)[O-])cc1C(=O)N1CCC(c2cnn3ccc(Br)cc23)CC1 |
| > 1000 nM | 3350 nM | 140 nM | – | – | – | Cc1ccc([N+](=O)[O-])cc1S(=O)(=O)C/C=C/c1cnn2ccc(Br)cc12 |
| 4420 nM | 320 nM | 740 nM | < 10 | – | – | O=[N+]([O-])c1cccc([S+]([O-])c2nc(-c3cnn4ccc(Br)cc34)cs2)c1 (centres undefined) |
| > 1000 nM | > 1000 nM | > 1000 nM | – | – | – | Cc1ccc([N+](=O)[O-])cc1S(=O)(=O)N1CCC(c2cnn3ccc(Br)cc23)CC1 |
| > 1000 nM | > 1000 nM | > 1000 nM | – | – | – | Cc1ccc([N+](=O)[O-])cc1CSc1nc(-c2cnn3ccc(Br)cc23)cs1 |
| 140 nM | 90 nM | 240 nM | – | – | – | Cc1ccc([N+](=O)[O-])cc1S(=O)(=O)Cc1nc(-c2cnn3ccc(Br)cc23)cs1 |
| > 1000 nM | > 1000 nM | > 1000 nM | – | – | – | Cc1ccc([N+](=O)[O-])cc1Nc1nc(-c2cnn3ccc(Br)cc23)cs1 |
| > 1000 nM | > 1000 nM | > 1000 nM | – | – | – | Cc1ccc([N+](=O)[O-])cc1S(=O)(=O)/N=c1/scc(-c2cnn3ccc(Br)cc23)n1C |
| > 1000 nM | 440 nM | 720 nM | – | – | – | N#Cc1ccc(F)c(S(=O)(=O)c2nc(-c3cnn4ccc(Br)cc34)cs2)c1 |
| > 1000 nM | > 1000 nM | > 1000 nM | – | – | – | Cc1ccc([N+](=O)[O-])cc1Cc1nc(-c2cnn3ccc(Br)cc23)cs1 |

More lines, now with the values behind:

| SMILES | IC50 [1] | IC50 [2] | IC50 [3] | Ratio IC50 (Homo sapiens [4]) | Ratio IC50 (Homo sapiens [5]) | Ratio IC50 (Homo sapiens [6]) |
| --- | --- | --- | --- | --- | --- | --- |
| Cc1ccc([N+](=O)[O-])cc1C(=O)N[C@H]1CCCN(Cc2cnn3ccc(C#N)cc23)C1 | > 1000 nM | > 1000 nM | > 1000 nM | – | – | – |
| Cc1ccc([N+](=O)[O-])cc1S(=O)(=O)N1CCCN(Cc2cnn3ccc(C#N)cc23)CC1 | > 1000 nM | > 1000 nM | > 1000 nM | – | – | – |
| Cc1ccc([N+](=O)[O-])cc1S(=O)(=O)NC1CN(Cc2cnn3ccc(C#N)cc23)C1 | > 1000 nM | > 1000 nM | > 1000 nM | – | – | – |
| Cc1ccc([N+](=O)[O-])cc1S(=O)(=O)N[C@@H]1CCN(Cc2cnn3ccc(C#N)cc23)C1 | > 1000 nM | > 1000 nM | > 1000 nM | – | – | – |
| Cc1ccccc1[S+]([O-])c1nc(-c2cnn3ccc(Br)cc23)cs1 (centres undefined) | > 1000 nM | > 1000 nM | 1280 nM | – | – | – |
| Cc1ccc([N+](=O)[O-])cc1S(=O)(=O)N[C@H]1CCCN(Cc2cnn3ccc(C#N)cc23)C1 | > 1000 nM | > 1000 nM | > 1000 nM | – | – | – |
| N#Cc1ccc(F)c([S+]([O-])c2nc(-c3cnn4ccc(Br)cc34)cs2)c1 (centres undefined) | > 1000 nM | 200 nM | 300 nM | – | – | – |
| Cc1ccc([N+](=O)[O-])cc1C(=O)NC1CN(Cc2cnn3ccc(C#N)cc23)C1 | > 1000 nM | > 1000 nM | > 1000 nM | – | – | – |
| CN(C)CCN(C)c1ccc(S(=O)(=O)c2nc(-c3cnn4ccc(Br)cc34)cs2)cc1C#N | > 1000 nM | 640 nM | 2470 nM | – | 4 | – |
| Cc1ccc([N+](=O)[O-])cc1S(=O)(=O)NC1CCN(Cc2cnn3ccc(C#N)cc23)CC1 | > 1000 nM | > 1000 nM | > 1000 nM | – | – | – |
| CN(C)CCN(C)c1ccc(C#N)cc1[S+]([O-])c1nc(-c2cnn3ccc(Br)cc23)cs1 (centres undefined) | 4340 nM | 250 nM | 4030 nM | – | 16 | 5 |
| Cc1ccc([N+](=O)[O-])cc1S(=O)(=O)N[C@@H]1CCCN(Cc2cnn3ccc(C#N)cc23)C1 | > 1000 nM | > 1000 nM | > 1000 nM | – | – | – |
| Cc1ccc([N+](=O)[O-])cc1S(=O)(=O)N[C@H]1CCN(Cc2cnn3ccc(C#N)cc23)C1 | > 1000 nM | > 1000 nM | > 1000 nM | – | – | – |
| Cc1ccc([N+](=O)[O-])cc1S(=O)(=O)N1CCN(Cc2cnn3ccc(C#N)cc23)CC1 | > 1000 nM | > 1000 nM | > 1000 nM | – | – | – |
| Cc1ccc([N+](=O)[O-])cc1C(=O)N[C@@H]1CCN(Cc2cnn3ccc(C#N)cc23)C1 | > 1000 nM | > 1000 nM | > 1000 nM | – | – | – |
| Cc1ccc([N+](=O)[O-])cc1C(=O)N[C@H]1CCN(Cc2cnn3ccc(C#N)cc23)C1 | > 1000 nM | > 1000 nM | > 1000 nM | – | – | – |
| CN(C)CCN(C)c1ccc(C#N)cc1S(=O)(=O)c1nc(-c2cnn3ccc(Br)cc23)cs1 | 3560 nM | 2000 nM | 370 nM | – | – | – |
| Cc1ccc([N+](=O)[O-])cc1C(=O)N[C@@H]1CCCN(Cc2cnn3ccc(C#N)cc23)C1 | > 1000 nM | > 1000 nM | > 1000 nM | – | – | – |
| Cc1ccc([N+](=O)[O-])cc1C(=O)NC1CCN(Cc2cnn3ccc(C#N)cc23)CC1 | > 1000 nM | > 1000 nM | > 1000 nM | – | – | – |
| Cc1ccc([N+](=O)[O-])cc1C(=O)N1CCN(Cc2cnn3ccc(C#N)cc23)CC1 | > 1000 nM | > 1000 nM | > 1000 nM | – | – | – |
| N#Cc1cc(S(=O)(=O)c2nc(-c3cnn4ccc(Br)cc34)cs2)ccc1NCCN1CCOCC1 | > 1000 nM | 240 nM | 2130 nM | – | 9 | – |
